Experimental data reported in patent publication US5375693A (Sepracor, Inc., priority 1994, dated 1994).

Tests used:
histamine H1 -receptor = histamine H1 -receptor (Bos taurus, UniProt P30546); test: biochemical; conditions: pH 7.5, read-out: Percent Inhibition
Protocol: 32:1653-1663 (1979). Briefly, membranes from bovine cerebellum were incubated with [^3 H]pyrilamine and varying concentrations of test compound. The reactions were carried out in 50 mM sodium phosphate buffer (pH 7.5) at 25° C. for 30 minutes. The reaction was terminated by rapid vacuum filtration onto glass fiber filters. Radioactivity trapped on the filters was determined and compared to control values to acertain the interaction of the test compound with the H1 -receptor.

[1] = test system: airway resistance caused by LTD4 (leukotriene D4); conditions: guinea pigs; cited from earlier work
allergic rhinitis = conditions: compared with chlorpheniramine; cited from earlier work
[2] = test system: histamine induced lethality; conditions: guinea pig; cited from earlier work
[3] = in vivo; cited from earlier work
[4] = cited from earlier work

Sequence of histamine H1 -receptor (P30546 whole entry): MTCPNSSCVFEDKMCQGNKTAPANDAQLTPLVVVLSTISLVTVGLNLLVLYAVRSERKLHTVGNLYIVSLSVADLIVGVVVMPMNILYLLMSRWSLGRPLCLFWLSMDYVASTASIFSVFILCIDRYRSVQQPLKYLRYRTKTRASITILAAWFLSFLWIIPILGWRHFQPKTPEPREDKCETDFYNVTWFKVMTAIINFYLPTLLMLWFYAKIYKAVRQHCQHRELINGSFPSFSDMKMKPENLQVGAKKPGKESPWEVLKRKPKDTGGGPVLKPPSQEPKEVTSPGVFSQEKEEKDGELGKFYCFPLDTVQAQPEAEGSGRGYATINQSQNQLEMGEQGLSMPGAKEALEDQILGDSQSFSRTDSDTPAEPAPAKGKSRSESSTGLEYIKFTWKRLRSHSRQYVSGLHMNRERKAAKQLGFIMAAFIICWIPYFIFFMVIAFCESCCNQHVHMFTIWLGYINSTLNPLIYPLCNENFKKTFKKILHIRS

With `CC(C)(C(=O)O)c1ccc([C@H](O)CCCN2CCC(C(O)(c3ccccc3)c3ccccc3)CC2)cc1` [R-(+)-terfenadine carboxylate] the inhibition at 0.001 µM (histamine H1 -receptor) was 12.4%, the inhibition at 0.1 µM (histamine H1 -receptor) was 45.2% and the inhibition at 10 µM (histamine H1 -receptor) was 87.3%.
`CC(C)(C(=O)O)c1ccc([C@@H](O)CCCN2CCC(C(O)(c3ccccc3)c3ccccc3)CC2)cc1` [S-(-)-terfenadine carboxylate] showed an inhibition at 0.001 µM (histamine H1 -receptor) of 8.1%, an inhibition at 0.1 µM (histamine H1 -receptor) of 54.1% and an inhibition at 10 µM (histamine H1 -receptor) of 88.7%.
For `CC(C)(C)c1ccc(C(O)CCCN2CCC(C(O)(c3ccccc3)c3ccccc3)CC2)cc1` (racemic) [Terfenadine], the “increase in airway resistance caused by LTD4” value [1] is listed as “suppressed”, the “clinical efficacy in allergic rhinitis” value (allergic rhinitis) is listed as “slightly less effective than chlorpheniramine” and the “protection against histamine induced lethality” value [2] is listed as “protects against histamine induced lethality in the guinea pig”. The absorption [3] was “well absorbed”, the metabolism [3] was “extensively metabolized” and the “adverse effects: cardiac arrhythmias” value ([4]; administration to a human) was “cardiac arrhythmias, including ventricular tachyarrhythmias, torsades de pointes, and ventricular fibrillation”. The “occurrence of cardiac arrhythmias” value ([4]; coadministration with other drugs such as ketoconazole and erythromycin or upon overdose) was “an increase in the occurrence of these cardiac arrhythmias” and the “sedation, gastrointestinal distress, dry mouth, and constipation or diarrhea” value ([4]; in vivo) was “relatively less sedation, gastrointestinal distress, dry mouth, and constipation or diarrhea”.
